Entries after “also recorded” stand apart in the source; their conditions may differ.
Experiments:
[1] = test system: transient K+ currents composed of Kv4.2 subunits; assay: Transient K+ currents recorded in distal dendrites of hippocampal area CA1 slices; format: cell-based
Protocol: MEK inhibitor PD098059 ([…]) or vehicle was applied to the hippocampal CA1 slices at least 20 minutes before recording conductance.
The functional consequence of MAPK inhibition on transient K^+currents composed of Kv4.2 subunits as recorded in distal dendrites of hippocampal area CA1 was evaluated. The MEK inhibitor PD098059 ([…]) or vehicle was applied to the hippocampal CA1 slices at least 20 min prior to recording conductance.

[2] = Behavioral observation of animals treated with SL327; format: in vivo, rat
[3] = test system: Kv4.2; assay: Phospho-Kv4.2 Western blotting of hippocampal membrane fractions from kainate and control animals; format: in vivo, rat
Protocol: Western blotting using the phospho-Kv4.2 antibody to the ERK sites was performed on membrane fractions from kainate and control animals pretreated with SL327 as described in Example 1. See also Adams et al., J. Neurochem. 75:2277-2287 (2000), and Anderson et al., J. Biol. Chem. 275:5337-5346 (2000). Animals were sacrificed 30 minutes after kainate (before overt seizures) and 1 hour after continuous motor seizures.

[4] = test system: ERK MAPK (p42 and p44); assay: Hippocampal ERK activation by Western blotting (phospho-ERK and total ERK); format: in vivo, rat; conditions: for basal ERK phosphorylation: CTL+SL327 400 mg/kg; for kainate-induced ERK phosphorylation: KA+SL327 400 mg/kg; for basal ERK activation (phospho-ERK): control+SL327 100 mg/kg; for kainate-induced ERK activation (phospho-ERK): kainate+SL327 100 mg/kg; for ERK activation (phospho-ERK): kainate+vehicle (PEG400/ETOH)
Protocol: Hippocampal ERK activation was quantified by Western blotting using the method described by Atkins el al.[Atkins et al., Nat. Neurosci. 1:602-609 (1998)] with minor modifications. In brief, animals were sacrificed at 30 minutes and after 1 hr of class 5 seizures (150 min post injection) and the hippocampus was dissected. CA1, CA3 and dentate subregions were dissected in ice-cold saline and homogenates prepared by extracting with denaturing detergent. Protein concentrations were deteremined by Bradford Assay. Homogenates were subjected to Western blotting (immunoblots) prepared by routine methods (for example, see Harlow and Lane, in ANTIBODIES: A LABORATORY MANUAL, Cold Spring Harbor Laboratory Press (1988)). Blotted protein was detected using antibodies to total ERK (1:10,000) and dually phosphorylated, activated ERK MAPK (p42 and p44)(1:1000)(Cell Signaling). Enzyme activity associated with a secondary antibody was detected by incubation with Enhanced Chemiluminescent Reagent (BioRad Laboratories, Hercules Calif.) as substrate. Immunoreactivity of the total ERK and dually phosphorylated activated ERK MAPK in the blot was quantified using densitometry (Scion) for representative blots of p42 and analyzed by Student's t-test.
(§1) Adult rats were injected IP with SL327 100 mg/kg or vehicle alone (PEG400/ETOH) were administered 30 minutes later with kainate or vehicle (saline). Animals were sacrificed at following 1 hour of kainate-induced seizures or three hours after kainate injection. Hippocampal regions CA1, CA3, and dentate were removed and processed for Western blotting, as described in Example 1.
ERK phosphorylation in brain tissue was evaluated in kainate challenged animals pretreated with 400 mg/kg SL327. […] CA1, CA3, and dentate were dissected and processed for Western blotting as described in Example 1. […] Tukey's Multiple Comparison Test: ***p<0.001.

[5] = test system: CREB; assay: Phospho-CREB Western blots of hippocampus; format: in vivo, rat
Protocol: Western blots prepared using CA1, CA3 and dentate regions of the hippocampus from rats following kainate-induced status epilepticus (KA, n=3) or vehicle alone (CTL, n=3) were performed using phospho-CREB antibodies. […] There is a small but significant decrease in CREB phosphorylation in CA3 (CA3 80.4±9.0%; *p<0.05, ***p<0.001).
Hippocampal region CA1 was removed 2 hours after rats were treated IP with the MEK inhibitor, SL327 (100 mg/kg) or vehicle alone. Western blots were developed using the phosho-CREB antibody.

[6] = test system: kainate-induced limbic motor seizures; assay: Kainate-induced seizures scored by Racine Classification Scale; format: in vivo, rat
Protocol: Male Sprague-Dawley rats (125-200 gm) were administered kainate at a dose of 15 mg/kg IP while the control animals (CTL) received vehicle IP (saline). Seizures were scored independently by two investigators in accordance with the Racine Classification Scale (0=no seizures, 1=mouth/face movements; 2=head nodding; 3=forelimb clonus; 4=rearing; and 5=rearing and falling). [Ben-Ari et al., Devl. Brain. Res. 14:284-288 (1985)]. Seizure score is shown plotted against time in the kainate-treated and control (vehicle-injected) animals.
as §1
Animals were treated as described in Example 2 except that SL327 was administered at 400 mg/kg.

[7] = test system: Kv4.2; conditions: U0126 20 μM, rat hippocampal slices, CA1
Protocol: Rat hippocampal slices were bathed in vehicle with MEK inhibitor U0126 (20 μM) or vehicle alone (CTL).

[8] = test system: phospho-ERK; assay: Phospho-ERK immunohistochemistry of hippocampus; format: in vivo, rat; conditions: 150 min after kainate; stratum oriens of CA1, stratum radiatum of CA1 and CA3, dentate hilus, mossy fiber inputs to CA3
Protocol: Immunohistochemical analysis of stained neural tissue was performed as described by Varga et al., Learn Mem 7;321-322 (2000), with the following modifications. In this case, kainate and control animals were sacrificed at 150 minutes following injection, while in stage 5 seizures for about 1 hour. After tissue fixation, 20-micron sections were thaw-mounted and incubated in 0.3% H2O2 in methanol for 30 minutes at RT, washed in PBST (PBS containing 0.2% Triton X-100), and blocked in PBST containing 5% normal goat serum (NGS). Sections were then incubated with the phospho-ERK antibody (1:100) overnight, washed with PBST, and incubated with a 1:200 dilution of goat anti-rabbit biotinylated secondary antibody for 30 minutes at RT. After washing and incubation with a 1:50 dilution of ABC reagent (Pierce) for 30 minutes at RT, sections were again washed in PBST and then stained using metal enhanced DAB. Sections were then rinsed, cleared, and coverslipped using a xylene based medium.

[9] = test system: phospho-Kv4.2; assay: Phospho-Kv4.2 immunohistochemistry of hippocampus; format: in vivo, rat; conditions: after kainate-induced seizures; stratum oriens and radiatum of CA1 and CA3, dentate hilus
Protocol: [insert*: see symbol after “antibody”] Immunohistochemistry using phospho-Kv4.2 antibody (phospho-Kv4.2) to the ERK sites was performed as described in Example 1 for the same animal groups. […] These areas include stratum oriens and stratum radiatum of areas CA1 and CA3 and the dentate hilus.

[10] = SL327 100 mg/kg IP 30 min before kainate
[11] = vehicle-treated kainate group (no SL327)

COc1cccc(-c2cc(=O)c3ccccc3o2)c1N [PD098059, 2-(2′-amino-3′-methoxyphenyl)-oxanaphthalen-4-one]
effect on conductance / voltage-dependence of K+ currents in dendrites ([1]; MEK inhibitor applied to hippocampal CA1 slices at least 20 min before recording): hyperpolarizing shift; also recorded: Conductance with inhibitor was increased compared to controls at almost all voltages applied | V½ of steady-state activation, after compound ([1]; as printed: after compound, PD098059 50 μM applied at least 20 min before recording, n=10): −2 mV | V½ of steady-state activation, before compound ([1]; as printed: before compound, n=7): −9 mV

N#CC(=C(N)Sc1ccc(N)cc1)c1ccccc1C(F)(F)F [SL327, Z- and E-α-[amino[(4-aminophenyl)thio]methylene]-2-(trifluoromethyl)benzeneacetonitrile]
sedation ([2]; SL327 400 mg/kg, all groups): modest degree of apparent sedation | locomotor activity ([2]; SL327 400 mg/kg, some animals in kainate and control groups): increase in locomotor activity | lethargy or other behavioral changes ([2]; control animals, SL327 100 mg/kg): No obvious lethargy or other behavioral changes | phospho-Kv4.2 ([3]; KA+SL327 400 mg/kg, CA1): 152.8±41.4 % of CTL+SL327 | phospho-Kv4.2 ([3]; KA+SL327 400 mg/kg, CA3): 170.8±16.6 % of CTL+SL327 | phospho-Kv4.2 ([3]; KA+SL327 400 mg/kg, dentate): 66.6±10.36 % of CTL+SL327 | basal ERK phosphorylation ([4]; CA1): 8.4±7.2 % of CTL+Vehicle | basal ERK phosphorylation ([4]; CA3): 2.9±0.5 % of CTL+Vehicle | basal ERK phosphorylation ([4]; dentate): 3.1±0.8 % of CTL+Vehicle | kainate-induced ERK phosphorylation ([4]; CA1): 31.5±10.5 % of CTL+Vehicle | kainate-induced ERK phosphorylation ([4]; CA3): 26.2±10.8 % of CTL+Vehicle | kainate-induced ERK phosphorylation ([4]; dentate): 24.7±9.9 % of CTL+Vehicle | total ERK1/ERK2 MAPK protein ([4]; SL327 400 mg/kg pretreatment, total ERK antibody): no changes in total protein | basal ERK activation (phospho-ERK) ([4]; CA1): 46.05 (±15.89) % control | basal ERK activation (phospho-ERK) ([4]; CA3): 37.51 (±9.59) % control | basal ERK activation (phospho-ERK) ([4]; dentate): 32.16 (±11.46) % control | kainate-induced ERK activation (phospho-ERK) ([4]; CA1): 220.70 (±35.80) % control | kainate-induced ERK activation (phospho-ERK) ([4]; CA3): 143.60 (±22.26) % control | kainate-induced ERK activation (phospho-ERK) ([4]; dentate): 195.6 (±18.58) % control | activated CREB (phospho-CREB) ([5]; CA1, 2 hours after SL327 100 mg/kg IP): reduces the amount of activated CREB | animals with class 5 seizures [6, 10]: 100% | block of kainate-induced seizures [6, 10]: did not block kainate-induced seizures | block of kainate-induced limbic motor seizures ([6]; SL327 400 mg/kg IP 30 min before kainate 15 mg/kg): blocks limbic motor status epilepticus; also recorded: effectively blocked kainate-induced limbic motor seizures | unspecified quantity, % of control ([1]; n=2, Control 85.55%): 61.83 % of control

N#CC(=C(/N)Sc1ccccc1N)/C(C#N)=C(\N)Sc1ccccc1N [U0126]
detection by MAPK-Kv4.2 phospho-selective antibody (basal Kv4.2 phosphorylation) [7]: 61.14%±8.74 % of control

C=C(C)[C@H]1CN[C@H](C(=O)O)[C@H]1CC(=O)O [kainate]
ERK phosphorylation of Kv4.2 ([3]; CA1, 30 min after kainate injection): 48.80±6.95 % control | ERK phosphorylation of Kv4.2 ([3]; CA3, 30 min after kainate injection): 128.70±29.12 % control | phospho-Kv4.2 ([3]; KA+Vehicle, CA1, after 1 hr limbic motor seizures): 535.5±84.1 % of CTL+Vehicle | phospho-Kv4.2 ([3]; KA+Vehicle, CA3, after 1 hr limbic motor seizures): 442.0±57.0 % of CTL+Vehicle | phospho-Kv4.2 ([3]; KA+Vehicle, dentate, after 1 hr limbic motor seizures): 1177.0±361.1 % of CTL+Vehicle | ERK phosphorylation of Kv4.2 ([3]; dentate, 30 min after kainate injection): 109.10±11.09 % control | phospho-ERK2 immunoreactivity ([4]; CA1, 30 min after kainate 15 mg/kg IP, prior to behavioral seizures): 218.9 (±40.66) % CTL | phospho-ERK2 immunoreactivity ([4]; CA1, 150 min after kainate, class 5 seizures): 165.5±16.5 % of control | phospho-ERK2 immunoreactivity ([4]; CA3, 30 min after kainate 15 mg/kg IP): 206.80 (±31.61) % CTL | phospho-ERK2 immunoreactivity ([4]; CA3, 150 min after kainate, class 5 seizures): 153.1±10.3 % of control | phospho-ERK2 immunoreactivity ([4]; dentate, 30 min after kainate 15 mg/kg IP): 305.50 (±58.26) % CTL | phospho-ERK2 immunoreactivity ([4]; dentate, 150 min after kainate, class 5 seizures): 224.8±34.1 % of control | total MAPK immunoreactivity ([4]; kainate versus control, total MAPK antibody): No difference | ERK activation (phospho-ERK) ([4]; CA1): 215.40 (±24.19) % control | ERK activation (phospho-ERK) ([4]; CA3): 196.60 (±6.69) % control | ERK activation (phospho-ERK) ([4]; dentate): 219.60 (±8.82) % control | CREB phosphorylation ([5]; CA1, kainate-induced status epilepticus): 162.9±29.4 % of control | CREB phosphorylation ([5]; CA3, kainate-induced status epilepticus): 80.4±9.0% | CREB phosphorylation ([5]; dentate, kainate-induced status epilepticus): 138.0±4.4 % of control | seizure class (Racine Classification Scale) ([6]; kainate 15 mg/kg IP, male Sprague-Dawley rats, within 90 min, persisted until 150 min): all of the animals studied developed class 5 seizures | animals progressed to Class 3 seizures [6, 11]: 1/9 | animals progressed to Class 5 seizures [6, 11]: 6/9 | animals that developed limbic motor seizures [6, 11]: 78% | animals with no evidence of motor seizures [6, 11]: 2/9 | phospho-ERK staining [8]: increased greatly | phospho-Kv4.2 staining [9]: increase in phospho-Kv4.2
